The record followed here is ChEMBL document CHEMBL2163206, “New nitrogen containing substituents at the indole-2-carboxamide yield high potent and broad spectrum indolylarylsulfone HIV-1 non-nucleoside reverse transcriptase inhibitors” (J Med Chem, 2012).

The structures appear in SMILES notation.

A word on the EC50: it is the concentration at which the effect is half-maximal. As a reminder, the IC50 is the concentration that gives 50% inhibition. Low readings indicate greater potency, high ones weaker potency. Usually CC50 stands for the concentration at which the toxic effect on the cells reaches its halfway point. Read a low CC50 as harm at low concentration.

Series [1] concerns Human immunodeficiency virus 1. Description: microbe, parasite or virus in culture. The following applies: Human immunodeficiency virus 1, clade B (BaL).
Description: Antiviral activity against HIV1 clade B (BaL) infected in human PBMCs assessed as inhibition of p24 antigen production by ELISA
Series [2] relates to Human immunodeficiency virus 1. The series can be described thus: microbe, parasite or virus in culture. The following applies: Human immunodeficiency virus 1, clade D (UG270).
Description: Antiviral activity against HIV1 clade D (UG270) infected in human PBMCs assessed as inhibition of p24 antigen production by ELISA
The subject of series [3] is Human immunodeficiency virus 1. The series can be described thus: microbe, parasite or virus in culture. The following applies: Human immunodeficiency virus 1, clade G (BCF-DIOUM).
Description: Antiviral activity against HIV1 clade G (BCF-DIOUM) infected in human PBMCs assessed as inhibition of p24 antigen production by ELISA
For series [4], the system named is Human immunodeficiency virus 1. The series can be described thus: microbe, parasite or virus in culture. Conditions: Human immunodeficiency virus 1, clade C (SM145).
Description: Antiviral activity against HIV1 clade C (SM145) infected in human PBMCs assessed as inhibition of p24 antigen production by ELISA
Series [5] deals with Human immunodeficiency virus 1. Description: microbe, parasite or virus in culture. Conditions: Human immunodeficiency virus 1, clade C (DJ259).
Description: Antiviral activity against HIV1 clade C (DJ259) infected in human PBMCs assessed as inhibition of p24 antigen production by ELISA
For series [6], the system named is Human immunodeficiency virus 1. Description: microbe, parasite or virus in culture. Conditions: Human immunodeficiency virus 1, clade F (BZ162).
Description: Antiviral activity against HIV1 clade F (BZ162) infected in human PBMCs assessed as inhibition of p24 antigen production by ELISA
The subject of series [7] is Human immunodeficiency virus 1. Description: microbe, parasite or virus in culture. The following applies: Human immunodeficiency virus 1, clade A (UG273).
Description: Antiviral activity against HIV1 clade A (UG273) infected in human PBMCs assessed as inhibition of p24 antigen production by ELISA
For series [8], the system named is Human immunodeficiency virus 1. The series can be described thus: microbe, parasite or virus in culture. Conditions: Human immunodeficiency virus 1, clade A/E (ID12).
Description: Antiviral activity against HIV1 clade A/E (ID12) infected in human PBMCs assessed as inhibition of p24 antigen production by ELISA
Series [9] in a line: in vitro. The following applies: human.
Description: Selectivity index, ratio of CC50 for mock-infected human MT4 cells to EC50 for HIV1 NL4-3 infected in human MT4 cells
Series [10] deals with Human immunodeficiency virus 1. Description: Antiviral activity against HIV1 containing reverse transcriptase K103N mutant infected in human MT4 cells assessed as inhibition of virus-induced cytopathicity measured 5 days post infection by MTT assay. Format: functional, organism-based. The following applies: Human immunodeficiency virus 1, MT4, 120 h. On the technique in general: Cytopathic effects are the visible damage that an infection or toxin causes in cultured cells.

Series [11] concerns Human immunodeficiency virus 1. Description: microbe, parasite or virus in culture. The following applies: Human immunodeficiency virus 1, MT4, 120 h.
Description: Antiviral activity against HIV1 containing reverse transcriptase Y188L mutant infected in human MT4 cells assessed as inhibition of virus-induced cytopathicity measured 5 days post infection by MTT assay
Series [12] addresses Human immunodeficiency virus type 1 reverse transcriptase (Human immunodeficiency virus 1, UniProt Q72547, L100I). The series can be described thus: Inhibition of HIV1 reverse transcriptase L100I mutant RNA-dependent DNA polymerase activity using poly(rA)/oligo(dT)10:1 and [3H]-dTTP substrate.
Series [13] has as its target Human immunodeficiency virus type 1 reverse transcriptase (Human immunodeficiency virus 1, UniProt Q72547, K103N). The series can be described thus: Inhibition of HIV1 reverse transcriptase K103N mutant RNA-dependent DNA polymerase activity using poly(rA)/oligo(dT)10:1 and [3H]-dTTP substrate.
The target of series [14] is Human immunodeficiency virus type 1 reverse transcriptase (Human immunodeficiency virus 1, UniProt Q72547). The series can be described thus: Inhibition of wild type HIV1 reverse transcriptase RNA-dependent DNA polymerase activity using poly(rA)/oligo(dT)10:1 and [3H]-dTTP substrate.
The nature of series [15]: Cytotoxicity against mock-infected human MT4 cells measured after 5 days by MTT assay. Format: cell-based. (In general: Tetrazolium assays rely on reduction of a dye to a coloured formazan, in cell work by metabolically active cells.)
Series [16] deals with Human immunodeficiency virus 1. The series can be described thus: Antiviral activity against HIV1 NL4-3 infected in human MT4 cells assessed as inhibition of virus-induced cytopathicity measured 5 days post infection by MTT assay. Format: functional, organism-based. The following applies: Human immunodeficiency virus 1, NL4-3, MT4, 120 h.
The test system of series [17] is Human immunodeficiency virus 1. It counts as functional, organism-based. The following applies: Human immunodeficiency virus 1, MT4, 120 h.
In series [18] the test system is Human immunodeficiency virus 2. Description: Antiviral activity against HIV2 infected in human PBMCs assessed as inhibition of p24 antigen production by ELISA. Format: functional, organism-based. For orientation: In an ELISA, binding on a coated surface is turned into a signal by an enzyme label.
In series [19] the test system is Human immunodeficiency virus 1. Description: Potency index, ratio of EC50 for Efavirenz to EC50 for compound against HIV1 containing reverse transcriptase K103N mutant infected in human MT4 cells assessed as inhibition of virus-induced cytopathicity measured 5 days post infection by MTT assay. Format: functional.
Series [20] deals with Human immunodeficiency virus 1. Description: Antiviral activity against HIV1 NL4-3 infected in human PBMCs assessed as inhibition of p24 antigen production by ELISA. Conditions: Human immunodeficiency virus 1, NL4-3. Format: functional, organism-based.
The test system of series [21] is Human immunodeficiency virus 1. Format: functional, organism-based. The following applies: Human immunodeficiency virus 1, IRLL98, MT4, 120 h.

As for `Cc1nnc(C(C)C)n1[C@H]1C[C@H]2CC[C@@H](C1)N2CC[C@H](NC(=O)C1CCC(F)(F)CC1)c1ccccc1` (relative stereo) [MARAVIROC], the EC50 in series [1], in [2], in series [3], in series [4], in [5] and in series [6] was 1 nM throughout. The EC50 in series [7] and in series [8] was 1 nM throughout.

Take `Cc1cc(C)cc(S(=O)(=O)c2c(C(=O)NCCc3cccnc3)[nH]c3ccc(Cl)cc23)c1`: in series [9], the selectivity ratio was above 5090. In addition, the EC50 in [10] worked out at 27.3 nM; in [11], 504 nM; in series [16], 2.1 nM; in series [17], 6.3 nM. The IC50 in series [12] was found to be 24 nM; in series [13], 162 nM; in series [14], 40 nM. In [15], this molecule registered a CC50 at 120 h above 10700 nM.

Regarding `Cc1cc(C)cc(S(=O)(=O)c2c(C(=O)NCc3ccncc3)[nH]c3ccc(Cl)cc23)c1`, the half-maximal effective concentration (EC50) in series [1] was 0.1 nM; in [18], above 200 nM; in [2], 0.4 nM; in series [10] it was 8.8 nM; in series [11] it was 22 nM; in [3], 1.7 nM. Moreover, the EC50 came out at 0.3 nM in series [4]; 0.4 nM in series [5]; 0.6 nM in [6]; 0.4 nM in series [20]; 1 nM in series [21]; 0.6 nM in series [7]. Further, the concentration for a half-maximal effect (EC50) in series [16] came to 2 nM; in series [17], 2.2 nM; in [8], 0.6 nM. Further, the selectivity ratio in series [9] was above 5510. Moreover, the IC50 in series [12] was found to be 11 nM; in series [13], 45 nM; in [14] it was 21 nM. Also, the “Ratio EC50” value in series [19] is recorded as 8. For the same molecule, the CC50 at 120 h in series [15] is above 11000 nM.

Consider `Cc1cn([C@H]2C[C@H](N=[N+]=[N-])[C@@H](CO)O2)c(=O)[nH]c1=O` [ZIDOVUDINE], for which the selectivity ratio in [9] is above 2400. Further, the EC50 in [10] came out at 15.6 nM; in series [11] it was 11.7 nM; in series [21], 3.8 nM; in series [16], 7.8 nM; in series [17] it was 1.6 nM. This molecule displayed a CC50 at 120 h in series [15] above 18700 nM.

`Cc1cc(C)cc(S(=O)(=O)c2c(C(=O)NCc3ccnc4ccccc34)[nH]c3ccc(Cl)cc23)c1`: the selectivity ratio in [9] is above 827. This molecule also gave a CC50 at 120 h in [15] above 9920 nM. In addition, the EC50 in [16] is 12 nM.

With `Cc1cc(C)cc(S(=O)(=O)c2c(C(=O)Nc3ccccc3C#N)[nH]c3ccc(Cl)cc23)c1`, the selectivity ratio in [9] was above 5390. In series [15], this molecule returned a CC50 at 120 h above 10800 nM. In addition, in series [16], the EC50 was 2 nM.

As to `Cc1cc(C)cc(S(=O)(=O)c2c(C(=O)Nc3cccc(C#N)c3)[nH]c3ccc(Cl)cc23)c1`, the selectivity ratio in [9] was above 4900. Besides, the EC50 in series [10] turned out to be 19.8 nM; in series [11], 1390 nM; in series [16], 2.2 nM; in [17], 44 nM. The IC50 in series [12] was 287 nM; in series [13], above 40 nM; in series [14], 506 nM. In series [15], this molecule registered a CC50 at 120 h above 10800 nM.

With `Cc1cc(C)cc(S(=O)(=O)c2c(C(=O)NC(C)C(N)=O)[nH]c3ccc(Cl)cc23)c1` (racemic), the selectivity ratio in series [9] worked out at 3020. Besides, in series [15], the midpoint of cytotoxicity, the CC50 at 120 h, lay at 6040 nM. In addition, the EC50 in series [16] came to 2 nM.

Take `Cc1cc(C)cc(S(=O)(=O)c2c(C(=O)NCc3ccc(C#N)cc3)[nH]c3ccc(Cl)cc23)c1`: in [9], the selectivity ratio was above 6970. In addition, the half-maximal effective concentration (EC50) is 118 nM in [10], above 10700 nM in [11], 1.5 nM in series [16] and 32.1 nM in series [17]. The IC50 in [12] is above 4 nM; in series [13], above 10 nM; in [14], above 10 nM. The same molecule gave a CC50 at 120 h in series [15] above 10500 nM.

`Cc1ccnc2c1NC(=O)c1cccnc1N2C1CC1` [NEVIRAPINE]: the concentration giving a half-maximal response (EC50) in series [10] is above 3760 nM; in [11], above 3760 nM; in series [21], above 18900 nM; in series [16], 1500 nM; in [17], above 3760 nM. The same molecule returned a 50% cytotoxic concentration (CC50) at 120 h in series [15] above 18800 nM.

For `Cc1cc(C)cc(S(=O)(=O)c2c(C(=O)NCCc3ccccn3)[nH]c3ccc(Cl)cc23)c1`, the selectivity ratio in series [9] was above 5340. For the same molecule, in series [15], the half-maximal cytotoxic concentration (CC50) at 120 h was above 10700 nM. Further, the half-maximal effective concentration (EC50) in series [16] worked out at 2 nM.

`Cc1cc(C)cc(S(=O)(=O)c2c(C(=O)NCc3ccccn3)[nH]c3ccc(Cl)cc23)c1`: in series [9], the selectivity ratio was above 5510. The cytotoxic concentration (CC50) at 120 h in series [15] is above 11000 nM. The concentration giving a half-maximal response (EC50) in [16] was 2 nM.

In the case of `Cc1cc(C)cc(S(=O)(=O)c2c(C(=O)NCc3cccnc3)[nH]c3ccc(Cl)cc23)c1`, the selectivity ratio in series [9] is above 5010. Further, the half-maximal effective concentration (EC50) in [10] was 37.8 nM; in series [11] it was 44 nM; in series [16], 2.2 nM; in series [17], 8.8 nM. The figures for the IC50 in series [12], in series [13] and in [14] were 8 nM, 32 nM and 20 nM, respectively. Also, the CC50 at 120 h in [15] was above 11000 nM.

In the case of `Cc1cc(C)cc(S(=O)(=O)c2c(C(=O)NCCc3ccncc3)[nH]c3ccc(Cl)cc23)c1`, the selectivity ratio in series [9] is above 5340. Besides, the CC50 at 120 h in series [15] was above 10700 nM. Further, in series [16], the EC50 turned out to be 2 nM.

With `O=C1Nc2ccc(Cl)cc2[C@@](C#CC2CC2)(C(F)(F)F)O1` [EFAVIRENZ], the concentration giving a half-maximal response (EC50) in series [10] stood at 69.3 nM; in [21], 980 nM; in [16] it was 6.3 nM; in series [17], 158 nM. In [15], this molecule gave a CC50 at 120 h above 15800 nM.

In the case of `Cc1cc(C)cc(S(=O)(=O)c2c(C(=O)Nc3ccc(C#N)cc3)[nH]c3ccc(Cl)cc23)c1`, the selectivity ratio in series [9] is above 980. Further, in series [15], the CC50 at 120 h was above 10800 nM. For the same molecule, the EC50 in [16] came out at 11 nM.
